Data from PubChem BioAssay (NCI).
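Briefly, cells in 96-well plates were exposed to five compound concentrations for 48 h, and endpoints were estimated by linear interpolation. GI50 marks 50% less growth. TGI is the concentration that stops growth completely.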

How the values were obtained:
Test in all cases: growth of human tumour cells (NCI), 48 h
[1] = system: SK-MEL-5 melanoma
[2] = system: SK-MEL-28 melanoma
[3] = system: DMS 273 small cell lung
[4] = system: CAKI-1 renal
[5] = system: MOLT-4 leukemia
[6] = system: HCC-2998 colon
[7] = system: OVCAR-5 ovarian
[8] = system: SW-620 colon
[9] = system: SK-OV-3 ovarian
[10] = system: UO-31 renal
[11] = system: IGROV1 ovarian
[12] = system: NCI-H460 lung
[13] = system: ACHN renal
[14] = system: SF-295 CNS
[15] = system: MALME-3M melanoma
[16] = system: OVCAR-3 ovarian
[17] = system: SN12C renal
[18] = system: HOP-92 NSCLC
[19] = system: EKVX NSCLC
[20] = system: HL-60(TB) leukemia
[21] = system: SNB-78 CNS
[22] = system: RXF-631 renal
[23] = system: M19-MEL melanoma
[24] = system: XF 498 CNS
[25] = system: SNB-19 CNS
[26] = system: HT29 colon
[27] = system: UACC-257 melanoma
[28] = system: HCT-15 colon
[29] = system: RPMI-8226 leukemia
[30] = system: UACC-62 melanoma
[31] = system: NCI-H226 lung
[32] = system: CCRF-CEM leukemia
[33] = system: M14 melanoma
[34] = system: SK-MEL-2 melanoma
[35] = system: KM20L2 colon
[36] = system: COLO 205 colon
[37] = system: K-562 leukemia
[38] = system: HCT-116 colon
[39] = system: RXF 393 renal
[40] = system: DMS 114 small cell lung
[41] = system: TK-10 renal
[42] = system: LOX IMVI melanoma
[43] = system: SNB-75 CNS
[44] = system: U251 CNS
[45] = system: HOP-62 NSCLC
[46] = system: OVCAR-4 ovarian
[47] = system: LXFL 529 NSCLC
[48] = system: DLD-1 colon
[49] = system: 786-0 renal
[50] = system: HOP-18 NSCLC
[51] = system: OVCAR-8 ovarian
[52] = system: A549 NSCLC
[53] = system: KM12 colon
[54] = system: SF-539 CNS
[55] = system: A498 renal
[56] = system: SR leukemia
[57] = system: NCI-H23 lung
[58] = system: SF-268 CNS
[59] = system: NCI-H522 lung

Compound: C[Si](C)(C)CC(N)=O
- TGI [1]: > 100 µM
- TGI [2]: > 100 µM
- TGI [3]: > 100 µM
- TGI [4]: > 100 µM
- TGI [5]: > 100 µM
- TGI [6]: > 100 µM
- TGI [7]: > 100 µM
- TGI [8]: > 100 µM
- TGI [9]: > 100 µM
- TGI [10]: > 100 µM
- TGI [11]: > 100 µM
- TGI [12]: > 100 µM
- TGI [13]: > 100 µM
- TGI [14]: > 100 µM
- TGI [15]: > 100 µM
- TGI [16]: > 100 µM
- TGI [17]: > 100 µM
- TGI [18]: > 100 µM
- TGI [19]: > 100 µM
- TGI [20]: > 100 µM
- TGI [21]: > 100 µM
- TGI [22]: > 100 µM
- TGI [23]: > 100 µM
- TGI [24]: > 100 µM
- TGI [25]: > 100 µM
- TGI [26]: > 100 µM
- TGI [27]: > 100 µM
- TGI [28]: > 100 µM
- TGI [29]: > 100 µM
- TGI [30]: > 100 µM
- TGI [31]: > 100 µM
- TGI [32]: > 100 µM
- TGI [33]: > 100 µM
- TGI [34]: > 100 µM
- TGI [35]: > 100 µM
- TGI [36]: > 100 µM
- TGI [37]: > 100 µM
- TGI [38]: > 100 µM
- TGI [39]: > 100 µM
- TGI [40]: > 100 µM
- TGI [41]: > 100 µM
- TGI [42]: > 100 µM
- TGI [43]: > 100 µM
- TGI [44]: > 100 µM
- TGI [45]: > 100 µM
- TGI [46]: > 100 µM
- TGI [47]: > 100 µM
- TGI [48]: > 100 µM
- TGI [49]: > 100 µM
- TGI [50]: > 100 µM
- TGI [51]: > 100 µM
- TGI [52]: > 100 µM
- TGI [53]: > 100 µM

Compound: CC1(C)C(O)OC(O)C1(C)C (stereo unspecified)
- TGI [1]: > 100 µM
- TGI [2]: > 100 µM
- TGI [3]: > 100 µM
- TGI [4]: > 100 µM
- TGI [5]: > 100 µM
- TGI [6]: > 100 µM
- TGI [7]: > 100 µM
- TGI [8]: > 100 µM
- TGI [9]: > 100 µM
- TGI [10]: > 100 µM
- TGI [11]: > 100 µM
- TGI [12]: > 100 µM
- TGI [13]: > 100 µM
- TGI [14]: > 100 µM
- TGI [15]: > 100 µM
- TGI [16]: > 100 µM
- TGI [17]: > 100 µM
- TGI [18]: > 100 µM
- TGI [19]: > 100 µM
- TGI [20]: > 100 µM
- TGI [21]: > 100 µM
- TGI [22]: > 100 µM
- TGI [23]: > 100 µM
- TGI [24]: > 100 µM
- TGI [25]: > 100 µM
- TGI [26]: > 100 µM
- TGI [27]: > 100 µM
- TGI [28]: > 100 µM
- TGI [29]: > 100 µM
- TGI [30]: > 100 µM
- TGI [31]: > 100 µM
- TGI [32]: > 100 µM
- TGI [33]: > 100 µM
- TGI [34]: > 100 µM
- TGI [35]: > 100 µM
- TGI [36]: > 100 µM
- TGI [37]: > 100 µM
- TGI [38]: > 100 µM
- TGI [39]: 94.6 µM
- TGI [40]: > 100 µM
- TGI [41]: > 100 µM
- TGI [42]: > 100 µM
- TGI [43]: > 100 µM
- TGI [44]: > 100 µM
- TGI [45]: > 100 µM
- TGI [46]: > 100 µM
- TGI [47]: > 100 µM
- TGI [48]: > 100 µM
- TGI [49]: > 100 µM
- TGI [50]: > 100 µM
- TGI [51]: > 100 µM
- TGI [52]: > 100 µM
- TGI [53]: > 100 µM

Compound: CC(=O)NC1C(O)CC(OCCCSCCN)(C(=O)O)OC1C(O)C(O)CO (stereo unspecified)
- TGI [1]: > 100 µM
- TGI [2]: > 100 µM
- TGI [3]: > 100 µM
- TGI [4]: > 100 µM
- TGI [5]: > 100 µM
- TGI [6]: > 100 µM
- TGI [7]: > 100 µM
- TGI [8]: > 100 µM
- TGI [11]: > 100 µM
- TGI [12]: > 100 µM
- TGI [13]: > 100 µM
- TGI [14]: > 100 µM
- TGI [15]: > 100 µM
- TGI [17]: > 100 µM
- TGI [18]: > 100 µM
- TGI [19]: > 100 µM
- TGI [20]: > 100 µM
- TGI [21]: > 100 µM
- TGI [22]: > 100 µM
- TGI [24]: > 100 µM
- TGI [25]: > 100 µM
- TGI [26]: > 100 µM
- TGI [27]: > 100 µM
- TGI [28]: > 100 µM
- TGI [29]: > 100 µM
- TGI [31]: > 100 µM
- TGI [54]: > 100 µM
- TGI [32]: > 100 µM
- TGI [33]: > 100 µM
- TGI [34]: > 100 µM
- TGI [55]: > 100 µM
- TGI [35]: > 100 µM
- TGI [36]: > 100 µM
- TGI [38]: > 100 µM
- TGI [39]: > 100 µM
- TGI [40]: > 100 µM
- TGI [56]: > 100 µM
- TGI [41]: > 100 µM
- TGI [42]: > 100 µM
- TGI [43]: > 100 µM
- TGI [44]: > 100 µM
- TGI [57]: > 100 µM
- TGI [46]: > 100 µM
- TGI [47]: > 100 µM
- TGI [48]: > 100 µM
- TGI [58]: > 100 µM
- TGI [50]: > 100 µM
- TGI [51]: > 100 µM
- TGI [52]: > 100 µM
- TGI [53]: > 100 µM

Compound: C[PH+](C)C.C[PH+](C)C.[Au]
- TGI [1]: 13.4 µM
- TGI [2]: 8.29 µM
- TGI [3]: 68.7 µM
- TGI [4]: 32.8 µM
- TGI [5]: 13.9 µM
- TGI [6]: > 60.6 µM
- TGI [7]: 24.9 µM
- TGI [8]: 9.22 µM
- TGI [9]: > 90.2 µM
- TGI [10]: 54.8 µM
- TGI [11]: 35.7 µM
- GI50 [59]: 0.247 µM
- TGI [59]: 0.771 µM
- TGI [12]: > 100 µM
- TGI [13]: > 68.4 µM
- TGI [14]: > 56.7 µM
- TGI [15]: 4.02 µM
- TGI [16]: 15.7 µM
- TGI [17]: 25.4 µM
- TGI [18]: 6.58 µM
- TGI [19]: 12.3 µM
- TGI [20]: 2.51 µM
- TGI [21]: 52.6 µM
- TGI [22]: 13.1 µM
- TGI [23]: 28.1 µM
- TGI [24]: 7.8 µM
- TGI [25]: 21.2 µM
- TGI [26]: 20.8 µM
- TGI [27]: 29.3 µM
- TGI [28]: 6.21 µM
- TGI [29]: 10.1 µM
- TGI [30]: 18.2 µM
- TGI [31]: 34.4 µM
- TGI [54]: 24.6 µM
- TGI [32]: 4.98 µM
- TGI [33]: 7.45 µM
- TGI [34]: 13.6 µM
- TGI [35]: 47.8 µM
- TGI [36]: > 34.2 µM
- TGI [37]: 10.6 µM
- TGI [38]: 27.7 µM
- TGI [39]: 2.89 µM
- TGI [40]: 15.6 µM
- TGI [41]: 35.4 µM
- TGI [42]: 18 µM
- TGI [43]: 30.1 µM
- TGI [44]: 15.2 µM
- TGI [57]: 11.2 µM
- TGI [45]: 98 µM
- TGI [46]: 24.5 µM
- TGI [47]: 3.48 µM
- TGI [48]: 11.2 µM
- TGI [49]: 10.9 µM
- TGI [58]: 15.2 µM
- TGI [50]: 10.4 µM
- TGI [51]: 19 µM
- TGI [52]: > 100 µM
- TGI [53]: 41.9 µM

Compound: CC(=O)N(C)C=C1C(=O)N(C)C(=O)N(C)C1=O
- TGI [1]: > 100 µM
- TGI [2]: > 100 µM
- TGI [3]: > 100 µM
- TGI [4]: > 100 µM
- TGI [5]: > 100 µM
- TGI [6]: > 100 µM
- TGI [7]: > 100 µM
- TGI [8]: > 100 µM
- TGI [10]: > 100 µM
- TGI [12]: > 100 µM
- TGI [13]: > 100 µM
- TGI [14]: > 100 µM
- TGI [15]: > 100 µM
- TGI [16]: > 100 µM
- TGI [17]: > 100 µM
- TGI [18]: > 100 µM
- TGI [19]: > 100 µM
- TGI [20]: > 100 µM
- TGI [22]: > 100 µM
- TGI [23]: > 100 µM
- TGI [24]: > 100 µM
- TGI [25]: > 100 µM
- TGI [26]: > 100 µM
- TGI [27]: > 100 µM
- TGI [28]: > 100 µM
- TGI [29]: > 100 µM
- TGI [30]: > 100 µM
- TGI [31]: > 100 µM
- TGI [54]: > 100 µM
- TGI [32]: > 100 µM
- TGI [33]: > 100 µM
- TGI [34]: > 100 µM
- TGI [55]: > 100 µM
- TGI [35]: > 100 µM
- TGI [37]: > 100 µM
- TGI [38]: > 100 µM
- TGI [39]: > 100 µM
- TGI [40]: > 100 µM
- TGI [56]: > 100 µM
- TGI [41]: > 100 µM
- TGI [42]: > 100 µM
- TGI [43]: > 100 µM
- TGI [44]: > 100 µM
- TGI [57]: > 100 µM
- TGI [46]: > 100 µM
- TGI [47]: > 100 µM
- TGI [48]: > 100 µM
- TGI [49]: > 100 µM
- TGI [50]: > 100 µM
- TGI [51]: > 100 µM
- TGI [52]: > 100 µM
- TGI [53]: > 100 µM
